Results taken from patent US20220033434A1, “ANDROGEN RECEPTOR NUCLEIC ACIDS AND USES THEREOF” (Avidity Biosciences, Inc., priority 2016, published 2022).
In the oligonucleotide strings, read from the 5' end, every base follows the letter of its sugar. An asterisk marks phosphorothioate; unmarked linkages are phosphodiester. Other units and linkages are bracketed, terminal groups are in braces. A string of capitals states the bases alone. d = 2'-deoxy (DNA); m = 2'-O-methyl; f = 2'-fluoro

Legend:
Type in all cases: cell-based, human
AR FL(1) = assay: AR protein knock-down by Western blot after siRNA transfection in 22RV1 cells: AR FL(1); details: 5 nM siRNA, 50 h post transfection, compared to controls
Procedure: (§1) In some instances, a set of AR siRNAs were identified that were predicted to be specific in human and non-human primates (NHP) and cross-reactive with NHPs but not rodent AR mRNA. To identify AR siRNAs that regulate both full length AR and clinically relevant AR splice variants, the search for AR siRNAs was focused primarily, but not exclusively, on exons 1, 2 and 3 of the AR gene, which are common to most AR isoforms. The resulting set of 50 AR siRNAs (Tables 1-3) was assessed in two prostate cancer lines that express high levels of either clinically relevant AR splice variants (22RV1, ATCC) or a full length AR T877A LBD mutant (LNCaP, ATCC). The response of LNCaP tumors in xenograft models to AR antagonists is known to correlate well with clinical responses.
(§2) To monitor their ability to downregulate various AR isoforms, each siRNA was formulated at a single final concentration of 5 nM with a commercially-available transfection reagent (Lipofectamine RNAiMAX, Life Technologies) according to the manufacturer's “forward transfection” instructions. At 50 h (22RV1) and 72 h (LNCaP) post transfection, cells were harvested, and lysed in RIPA buffer (Pierce) supplemented with HALT protease inhibitors (Pierce) using standard procedures. The protein concentration was determined using a BCA protein concentration kit (Pierce). To monitor AR levels in these lysates, proteins (30 ug/lane) were separated by PAGE on BOLT 4-12% Bis-Tris PA gels (Life Technologies), transferred to nitrocellulose using an iBlot dry blot system (Thermo Fisher), and probed with specific antibodies against a region of the N-terminal domain of human AR that is common in known clinically relevant splice variants (N20, Santa Cruz Biotech). A second antibody against α-Tubulin was used as control (P16, Santa Cruz Biotech). Levels of these proteins in the respective cell lysates were quantified on an Odyssey imaging system (LICOR) using appropriate secondary antibodies linked to IRDyes (800CW, 680RD).

AR-SV(3) = assay: AR protein knock-down by Western blot after siRNA transfection in 22RV1 cells: AR-SV(3); details: 5 nM siRNA, 50 h post transfection, compared to controls
Procedure: as §1, §2

[1] = test system: AR FL (full length AR T877A LBD mutant); assay: AR protein knock-down by Western blot after siRNA transfection in LNCaP cells: AR FL; details: 5 nM siRNA, 72 h post transfection, compared to controls
Procedure: as §1, §2

AR-SV(2) = assay: AR protein knock-down by Western blot after siRNA transfection in 22RV1 cells: AR-SV(2); details: 5 nM siRNA, 50 h post transfection, compared to controls
Procedure: as §1, §2

| Substance | % KD AR Protein 22RV1 AR FL(1) (AR FL(1)) | % KD AR Protein 22RV1 AR-SV(3) (AR-SV(3)) | % KD AR Protein LNCaP AR FL [1] | % KD AR Protein 22RV1 AR-SV(2) (AR-SV(2)) |
| --- | --- | --- | --- | --- |
| XD-01838: AR siRNA with chemical modification, Id # 2931; sense X05371 (SEQ ID NO: 201), antisense X05372 (SEQ ID NO: 202) (sense mAmAfAmUfUmCfCmGfAmAfGmGfAmAfAmAfAmUfUdT*dT; antisense fAfAmUfUmUfUmUfCmCfUmUfCmGfGmAfAmUfUmUdT*dT) | 85% | 67% | 88% | 65% |
| XD-01839: AR siRNA with chemical modification, Id # 2933; sense X05373 (SEQ ID NO: 203), antisense X05374 (SEQ ID NO: 204) (sense mAmUfUmCfCmGfAmAfGmGfAmAfAmAfAmUfUmGfUdT*dT; antisense fAfCmAfAmUfUmUfUmUfCmCfUmUfCmGfGmAfAmUdT*dT) | 76% | 56% | 93% | 62% |
| XD-01840: AR siRNA with chemical modification, Id # 2935; sense X05375 (SEQ ID NO: 205), antisense X05376 (SEQ ID NO: 206) (sense mUmCfCmGfAmAfGmGfAmAfAmAfAmUfUmGfUmCfCdT*dT; antisense fGfGmAfCmAfAmUfUmUfUmUfCmCfUmUfCmGfGmAdT*dT) | 89% | 75% | 97% | 89% |
| XD-01841: AR siRNA with chemical modification, Id # 2936; sense X05377 (SEQ ID NO: 207), antisense X05378 (SEQ ID NO: 208) (sense mCmCfGmAfAmGfGmAfAmAfAmAfUmUfGmUfCmCfAdT*dT; antisense fUfGmGfAmCfAmAfUmUfUmUfUmCfCmUfUmCfGmGdT*dT) | 85% | 74% | 99% | 85% |
| XD-01842: AR siRNA with chemical modification, Id # 2940; sense X05379 (SEQ ID NO: 209), antisense X05380 (SEQ ID NO: 210) (sense mAmGfGmAfAmAfAmAfUmUfGmUfCmCfAmUfCmUfUdT*dT; antisense fAfAmGfAmUfGmGfAmCfAmAfUmUfUmUfUmCfCmUdT*dT) | 89% | 84% | 101% | 94% |
| XD-01843: AR siRNA with chemical modification, Id # 2961; sense X05381 (SEQ ID NO: 211), antisense X05382 (SEQ ID NO: 212) (sense mCmGfUmCfUmUfCmGfGmAfAmAfUmGfUmUfAmUfGdT*dT; antisense fCfAmUfAmAfCmAfUmUfUmCfCmGfAmAfGmAfCmGdT*dT) | 78% | 47% | 94% | 75% |
| XD-01844: AR siRNA with chemical modification, Id # 2962; sense X05383 (SEQ ID NO: 213), antisense X05384 (SEQ ID NO: 214) (sense mGmUfCmUfUmCfGmGfAmAfAmUfGmUfUmAfUmGfAdT*dT; antisense fUfCmAfUmAfAmCfAmUfUmUfCmCfGmAfAmGfAmCdT*dT) | 56% | 26% | 81% | 54% |
| XD-01845: AR siRNA with chemical modification, Id # 2966; sense X05385 (SEQ ID NO: 215), antisense X05386 (SEQ ID NO: 216) (sense mUmCfGmGfAmAfAmUfGmUfUmAfUmGfAmAfGmCfAdT*dT; antisense fUfGmCfUmUfCmAfUmAfAmCfAmUfUmUfCmCfGmAdT*dT) | 92% | 72% | 99% | 92% |
| XD-01846: AR siRNA with chemical modification, Id # 2975; sense X05387 (SEQ ID NO: 217), antisense X05388 (SEQ ID NO: 218) (sense mUmUfAmUfGmAfAmGfCmAfGmGfGmAfUmGfAmCfUdT*dT; antisense fAfGmUfCmAfUmCfCmCfUmGfCmUfUmCfAmUfAmAdT*dT) | 87% | 76% | 94% | 94% |
| XD-01847: AR siRNA with chemical modification, Id # 3020; sense X05389 (SEQ ID NO: 219), antisense X05390 (SEQ ID NO: 220) (sense mUmGfGmUfAmAfUmCfUmGfAmAfAmCfUmAfCmAfGdT*dT; antisense fCfUmGfUmAfGmUfUmUfCmAfGmAfUmUfAmCfCmAdT*dT) | 28% | −68% | 69% | −10% |
| XD-01848: AR siRNA with chemical modification, Id # 3101; sense X05391 (SEQ ID NO: 221), antisense X05392 (SEQ ID NO: 222) (sense mGmUfCmAfCmAfCmAfUmUfGmAfAmGfGmCfUmAfUdT*dT; antisense fAfUmAfGmCfCmUfUmCfAmAfUmGfUmGfUmGfAmCdT*dT) | 87% | 27% | 101% | 31% |
| XD-01849: AR siRNA with chemical modification, Id # 3105; sense X05393 (SEQ ID NO: 223), antisense X05394 (SEQ ID NO: 224) (sense mCmAfCmAfUmUfGmAfAmGfGmCfUmAfUmGfAmAfUdT*dT; antisense fAfUmUfCmAfUmAfGmCfCmUfUmCfAmAfUmGfUmGdT*dT) | 86% | −40% | 92% | 7% |
| XD-01850: AR siRNA with chemical modification, Id # 3107; sense X05395 (SEQ ID NO: 225), antisense X05396 (SEQ ID NO: 226) (sense mCmAfUmUfGmAfAmGfGmCfUmAfUmGfAmAfUmGfUdT*dT; antisense fAfCmAfUmUfCmAfUmAfGmCfCmUfUmCfAmAfUmGdT*dT) | 86% | 5% | 82% | 14% |
| XD-01851: AR siRNA with chemical modification, Id # 3217; sense X05397 (SEQ ID NO: 227), antisense X05398 (SEQ ID NO: 228) (sense mUmGfCmUfCmUfCmUfAmGfCmCfUmCfAmAfUmGfAdT*dT; antisense fUfCmAfUmUfGmAfGmGfCmUfAmGfAmGfAmGfCmAdT*dT) | 50% | 8% | 84% | 2% |
| XD-01852: AR siRNA with chemical modification, Id # 3218; sense X05399 (SEQ ID NO: 229), antisense X05400 (SEQ ID NO: 230) (sense mGmCfUmCfUmCfUmAfGmCfCmUfCmAfAmUfGmAfAdT*dT; antisense fUfUmCfAmUfUmGfAmGfGmCfUmAfGmAfGmAfGmCdT*dT) | 16% | 10% | 34% | 8% |
